Tests used:
[1] = system: B6.Apc^Min/+ model of intestinal neoplasia; experiment: Polyp number and cross sectional polyp area in B6.Apc^Min/+ mice treated with C5aR antagonist on HFCoco diet; assay type: in vivo, mouse; settings: 1 mg/kg subcutaneously every other day for 30 days
From the text: B6.Apc^Min/+ is a mouse model for intestinal neoplasia that carry a mutation in the Apc gene similar to that found in over 85% of sporadic colon cancer cases in humans. The APC mutation results in improper binding of β-catenin to the degradation complex and models the mutation observed in most sporadic human colon cancer tumors. B6.Apc^Min/+ mice develop 50-80 intestinal polyps in the small intestine by 120 days of age (Heijstek et al., 2005, Digest Surg. 22: 16-25). The APC amino acid sequence is 90% identical to that of the human APC.
B6.Apc^Min/+ and the CCSs (A2.Apc^Min/+, A7.Apc^Min/+, A9.Apc^Min/+, A17.Apc^Min/+, and A19.Apc^Min/+) along with the corresponding wild-type controls (B6, B6.A2, B6.A7, B6.A9, B6.A17 and B6.A19, respectively) were born and maintained on the standard 5010 diet until 30 days of age. Male mice were genotyped for the APC mutation using DNA that was purified from tail tissue taken at weaning. […] Body weight and length (to calculate BMI) as well as epidydimal fat pad mass were measured at the final time point.
Body weight and length were measured to calculate body mass index (BMI). Polyp number and polyp size from the small and large intestine were measured. […] The large intestine was excised and analyzed as one region (LI-1). […]

[2] = system: activated AKT (pS473), IKK (pS176) and NFκB (pS536); experiment: Western analysis of intestinal tissue of treated B6.Apc^Min/+ mice (NFκB signaling); assay type: in vivo, mouse; settings: after 30 days on HFCoco diet and treatment; compared to control inhibitor
From the text: To test the function of this reduction in polyp number in mice treated with the C5aR inhibitor, intestinal tissues were collected and used to extract RNA and protein for expression and western analysis, respectively.

Acetyl-Phe-[Orn-Pro-D-cyclohexylalanine-Trp-Arg] [PMX-53]
cross sectional polyp area [1]: significantly reduced | polyp number ([1]; compared to untreated mice or mice injected with control inhibitor): significant reduction | activated AKT (pS473) protein level in intestine [2]: significant reduction | activated IKK (pS176) protein level in intestine [2]: significant reduction | activated NFκB (pS536) protein level in intestine [2]: significant reduction

Source: patent publication US20140219999A1, “TREATMENT OF COLON CANCER USING COMPLEMENT INHIBITORS” (priority 2011, published 2014)
